Reference: patent US20170237129A1, “Quaternary Ammonium Halides With Ether Functional Groups For Use As Battery Electrolytes” (Albemarle Corporation, priority 2014, published 2017)

Experiments:
Format in all cases: physicochemical
[1] = Cloud point determination; conditions: 0.7M quat in 2.5M zinc bromide water solution
Description: By “cloud point” is meant the cloud point of an aqueous solution containing 0.7 M complexing agent and 2.5 M zinc bromide.
A 0.7M quaternary ammonium bromide in 2.5M Zinc Bromide water solution was prepared. • 2. The solution was transferred to a jacketed flask with a stirring bar and temperature monitor. • 3. The solution was warmed to 15° C. above the expected cloud point. If necessary, any moisture or impurities were removed by filtration. • 4. The solution was stirred, with speed adjustment to about 250 rpm, while avoiding the formation of bubbles. • 5. The solution was cooled gradually (cooling rate of about 1° C./5 min). • 6. The sample was inspected carefully for signs of cloudiness, and the temperature at which cloudiness was observed was recorded to the nearest 0.1° C.

[2] = Measurement of free bromine in aqueous phase; conditions: stirred 24 hrs, top aqueous phase, wt %
Excerpt: The forward operation of a bromine-containing battery generally involves the conversion of elemental bromine to ionic bromine. The quat/Br2 complex results from an equilibrium reaction in which the Br2 is released from the complex as the concentration of free Br2 in the aqueous electrolyte drops during battery operation. In its fully charged state, the electrolyte solution inevitably contains some degree of uncomplexed bromine. A measure of a quat's ability to complex elemental bromine is the amount of elemental bromine left in solution when the complexation reaction proceeds to equilibrium. Such bromine is referred to as “free bromine.” Measurement of free bromine in aqueous phase is set forth in Example 1.
Two slightly different methods were used to prepare the electrolyte compositions, A) one containing 0.7M quat and B) the other containing 0.8M quat. In composition A, 2.0 moles of bromine was added to an aqueous solution containing 0.5 moles of zinc bromide and 0.7 moles of the quat. The two-phase mixture was stirred for 24 hrs. and then the phases were allowed to settle. The top aqueous phase was sampled for free bromine measurement. In composition B, 1.44 moles of bromine was added to an aqueous solution containing 0.5 moles of zinc bromide, 0.4 moles of zinc chloride and 0.8 moles of the quat. The top aqueous phase obtained after stirring for 24 hrs. was used for free bromine measurement.
A 250-ml Erlenmeyer flask was charged with 50 ml of deionized water and weighed (A). A sample of the clear aqueous phase was passed through glass wool to remove any suspended organic phase and then added to the Erlenmeyer flask. The flask was weighed again (B) and the difference in weight (B-A) was noted as the weight of the sample. About 20 ml of 20% potassium iodide solution followed by about 5 ml of starch solution was added to the flask. The resulting dark mixture was titrated against 0.02N sodium thiosulfate solution. The end-point was the disappearance of purple color. Free bromine (wt %) was calculated in the following manner:
Wt % free Br2=Volume (ml) of sodium Thiosulfate×Normality of Sodium thisosulfate/Sample Weight.

[3] = Free bromine in electrolyte with chloroquat or bromoquat (Example 8); conditions: 0.84 M zinc bromide, 0.8 M quat, 1.44 M bromine; stirred 24 hrs at 35° C.
Description: Chloride ions are added to the electrolyte in amounts sufficient to reduce the amount of free bromine present and increase the electrolyte conductivity during charging of the cell, Chloride ions in the electrolyte may come from zinc chloride or quaternary ammonium chloride complexing agent. Experiment 1 of Example 8: An aqueous electrolyte system was prepared having 0.84 M zinc bromide, 0.8 M chioroquat (N-methyl, N-butyl pyrrolidinium chloride) and 1.44 M bromine. After the sample was stirred for 24 hrs at 35° C., the amount of free bromine present in the electrolyte was 0.26%. Experiment 2 of Example 8: An aqueous electrolyte system was prepared having 0.84 M zinc bromide, 0.8 M bromoquat (N-methyl, N-butyl pyrrolidinium bromide) and 1.44 M bromine. After the sample was stirred for 24 hrs at 35° C., the amount of free bromine present in the electrolyte was 0.25%.

[4] = 0.8M quat (composition B: 1.44 moles bromine, 0.5 moles zinc bromide, 0.4 moles zinc chloride, 0.8 moles quat)
[5] = 0.7M quat (composition A: 2.0 moles bromine, 0.5 moles zinc bromide, 0.7 moles quat)

Solubility in ZnBr2 Cloud Point [1] | SMILES | Free Br2 [2, 4] | Free Br2 [2, 5] | also measured
0.7M, 41.2 C. | CCC[N+](CC)(CC)CC.[Br-] [Compound 5, triethylpropylammonium bromide] | – | 0.7M 0.089% | Free Br2 ([2]; 0.7M quat (composition A: 2.0 moles bromine, 0.5 moles zinc bromide, 0.7 moles quat), listed as compound 5): 0.089%
0.7M, <-10.5 C. | CC[N+](CC)(CC)CCOC.[Br-] [Compound 2, (2-methoxyethyl)-triethylammonium bromide] | 0.8M 0.467% | 0.7M 0.658% | –
0.7M, <-10.5 C. | CC[N+](C)(CC)CCOC.[Br-] [Compound 4, diethylmethyl-(2-methoxyethyl)ammonium bromide] | – | 0.7M 0.70% | –

More lines, now with the values behind:

SMILES | Solubility in ZnBr2 Cloud Point [1] | Free Br2 [2, 4] | Free Br2 [2, 5] | also measured
CCC[N+]1(CC)CCCCC1 [Compound 10, EthyPropyl Piperidinium Bromide] | 0.7M, 45.8 C. | 0.8M 0.026% | – | Free Br2 ([2]; 0.8M quat (composition B: 1.44 moles bromine, 0.5 moles zinc bromide, 0.4 moles zinc chloride, 0.8 moles quat), listed as compound 10): 0.026%
CCCC[N+]1(C)CCCC1.[Cl-] [chioroquat, N-methyl, N-butyl pyrrolidinium chloride] | – | – | – | amount of free bromine present in the electrolyte [3]: 0.26%
CCCC[N+]1(C)CCCC1.[Br-] [bromoquat, N-methyl, N-butyl pyrrolidinium bromide] | – | – | – | amount of free bromine present in the electrolyte [3]: 0.25%
CCCC[N+](C)(C)CCOC.[Br-] [Compound 1, Dimethylbutylether Quat Bromide] | 0.7M, 29 C. | – | 0.7M 0.28% | –
CC[N+]1(CC)CCCCC1.[Br-] [Compound 9, Diethyl Piperidinium Bromide] | 0.7M, 11.9 C. | 0.8M 0.26% | – | Free Br2 ([2]; 0.8M quat (composition B: 1.44 moles bromine, 0.5 moles zinc bromide, 0.4 moles zinc chloride, 0.8 moles quat), listed as compound 9): 0.26%
